This passage reports IC50 results from ChEMBL document CHEMBL1150455, “Preparation and in vitro activities of naphthyl and indolyl ether derivatives of the FK-506 related immunosuppressive macrolide ascomycin” (Bioorg Med Chem Lett, 1996).

As usually defined, the IC50 is the point on the concentration scale where inhibition reaches its midpoint. Read a low IC50 as greater potency.

For test [1], the target named is Peptidyl-prolyl cis-trans isomerase FKBP1A (Homo sapiens, UniProt P62942). The test is described as follows: In vitro competitive binding to FK506 binding protein 12 versus tritiated FK-506.
Test [2] has as its system T-cell. Nature of the test: In vitro inhibition of proliferation of PMA and ionomycin stimulated murine T cells. The conditions noted are these: Mus musculus. It is filed as functional, cell-based.
For test [3], the system named is T-cell. The test is described as follows: In vitro inhibition of proliferation of PMA and ionomycin stimulated murine T cells; Antagonist. It is filed as functional, cell-based, Mus musculus.

Sequence of Peptidyl-prolyl cis-trans isomerase FKBP1A (P62942 whole entry): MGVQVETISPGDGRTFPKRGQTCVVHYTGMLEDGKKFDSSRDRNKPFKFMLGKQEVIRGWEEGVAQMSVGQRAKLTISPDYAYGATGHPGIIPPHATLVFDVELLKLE

Turning to `CC[C@@H]1/C=C(\C)C[C@H](C)[C@H](OC)[C@H]2O[C@@](O)(C(=O)C(=O)N3CCCC[C@H]3C(=O)O[C@H](/C(C)=C/[C@@H]3CC[C@@H](Oc4ccc5ccccc5c4)[C@H](OC)C3)[C@H](C)[C@@H](O)CC1=O)[C@H](C)C[C@@H]2OC`, the values for the IC50 (in test [1]; with T-cell [2]) were 74.8 nM and 1.8 nM, respectively.
In the case of `CC[C@@H]1/C=C(\C)[C@@H](O)[C@H](C)[C@H](OC)[C@H]2O[C@@](O)(C(=O)C(=O)N3CCCC[C@H]3C(=O)O[C@H](/C(C)=C/[C@@H]3CC[C@@H](Oc4ccc5c(ccn5C)c4)[C@H](OC)C3)[C@H](C)[C@@H](O)CC1=O)[C@H](C)C[C@@H]2OC`, the values for the IC50 (in test [1]; in the test on T-cell [2]) were 2.8 nM and 5.5 nM, respectively.
`CC[C@@H]1/C=C(\C)[C@@H](O)[C@H](C)[C@H](OC)[C@H]2O[C@@](O)(C(=O)C(=O)N3CCCC[C@H]3C(=O)O[C@H](/C(C)=C/[C@@H]3CC[C@@H](O)[C@H](OC)C3)[C@H](C)[C@@H](O)CC1=O)[C@H](C)C[C@@H]2OC`: the figures for the IC50 (in test [1]; with T-cell [3]) were 0.7 nM and “Antagonist”, respectively.
On to `CC[C@@H]1/C=C(\C)C[C@H](C)[C@H](OC)[C@H]2O[C@@](O)(C(=O)C(=O)N3CCCC[C@H]3C(=O)O[C@H](/C(C)=C/[C@@H]3CC[C@@H](Oc4ccc5c(ccn5C)c4)[C@H](OC)C3)[C@H](C)[C@@H](O)CC1=O)[C@H](C)C[C@@H]2OC`, for which the IC50 worked out at 3.6 nM in test [1] and 0.2 nM with T-cell [2].
In turn, `CC[C@@H]1/C=C(\C)[C@@H](O)[C@H](C)[C@H](OC)[C@H]2O[C@@](O)(C(=O)C(=O)N3CCCC[C@H]3C(=O)O[C@H](/C(C)=C/[C@@H]3CC[C@@H](Oc4ccc5ccccc5c4)[C@H](OC)C3)[C@H](C)[C@@H](O)CC1=O)[C@H](C)C[C@@H]2OC` came in with an IC50 with T-cell [2] of 10.2 nM.
`CC[C@@H]1/C=C(\C)C[C@H](C)[C@H](OC)[C@H]2O[C@@](O)(C(=O)C(=O)N3CCCC[C@H]3C(=O)O[C@H](/C(C)=C/[C@@H]3CC[C@@H](Oc4ccc5[nH]ccc5c4)[C@H](OC)C3)[C@H](C)[C@@H](O)CC1=O)[C@H](C)C[C@@H]2OC`: the values for the IC50 (in test [1]; in the test with T-cell [2]) were 5.1 nM and 0.2 nM, respectively.
For the molecule `C=CC[C@@H]1/C=C(\C)C[C@H](C)[C@H](OC)[C@H]2O[C@@](O)(C(=O)C(=O)N3CCCC[C@H]3C(=O)O[C@H](/C(C)=C/[C@@H]3CC[C@@H](O)[C@H](OC)C3)[C@H](C)[C@@H](O)CC1=O)[C@H](C)C[C@@H]2OC`, the values for the half-maximal inhibitory concentration (IC50) (in test [1]; with T-cell [2]) were 0.8 nM and 0.2 nM, respectively.
In the case of `CC[C@@H]1/C=C(\C)C[C@H](C)[C@H](OC)[C@H]2O[C@@](O)(C(=O)C(=O)N3CCCC[C@H]3C(=O)O[C@H](/C(C)=C/[C@@H]3CC[C@@H](O)[C@H](OC)C3)[C@H](C)[C@@H](O)CC1=O)[C@H](C)C[C@@H]2OC`, the IC50 in test [1] worked out at 1.6 nM; with T-cell [2], 0.7 nM.
Consider `CC[C@@H]1/C=C(\C)C[C@H](C)[C@H](OC)[C@H]2O[C@@](O)(C(=O)C(=O)N3CCCC[C@H]3C(=O)O[C@H](/C(C)=C/[C@@H]3CC[C@@H](Oc4ccccc4)[C@H](OC)C3)[C@H](C)[C@@H](O)CC1=O)[C@H](C)C[C@@H]2OC`, for which the values for the IC50 (in test [1]; in the test on T-cell [2]) were 10 nM and 5.4 nM, respectively.
